In PMC9611887, “Chitosan as a Functional Carrier for the Local Delivery Anti-Inflammatory Systems Containing Scutellariae baicalensis radix Extract” (Pharmaceutics, 2022):

Target: T1, hyaluronidase
T1 construct: gene SPAM1
Test: turbidimetric assay, CTAB precipitation of undigested hyaluronic acid, absorbance […] nm
Format: biochemical
Details: hyaluronic acid 0.3 mg/mL, acetate buffer pH 4.5, bovine albumin and NaCl present, 37 °C, 10 min preincubation, 45 min reaction

O=C(O)[C@H]1O[C@@H](Oc2cc3oc(-c4ccccc4)cc(=O)c3c(O)c2O)[C@H](O)[C@@H](O)[C@@H]1O [Baicalin]
Ability to Inhibit the Enzyme Hyaluronidase IC50: 1210 ± 60 mg/L
